Data on one compound can be found in patent publication US7144880B2, “Compositions relating to novel compounds and targets thereof” (Regents of the University of Michigan, priority 2003, dated 2006).

Each structure is given as a SMILES string.

The target in data set [1] is T1, human OSCP (Homo sapiens, UniProt P48047).
T1 construct: made in house; host or cells: E. coli
Nature of the data set: Quenching of intrinsic OSCP fluorescence on titration (binding isotherm). Particulars: human OSCP overexpressed in E. coli, fluorescence quenching. An excerpt:
Oligomycin is a macrolide natural product that binds to the mitochondrial F1F0-ATPase, induces a state 3 to 4 transition, and as a result, generates ROS (e.g., O2^−). In preferred embodiments, the present invention binds the OSCP component of the mitochondrial F1F0-ATPase. In certain embodiments, screening assays of the present invention permit detection of binding partners of the OSCP. OSCP is an intrinsically fluorescent protein. In certain embodiments, titrating a solution of test compounds of the present invention into an E. Coli sample overexpressed with OSCP results in quenching of the intrinsic OSCP fluorescence. In other embodiments, fluorescent or radioactive test compounds can be used in direct binding assays. In other embodiments, competition binding experiments can be conducted. In this type of assay, test compounds are assessed for their ability to compete with Bz-423 for binding to the OSCP. In some embodiments, the compounds of the present invention cause a reduced increase in cellular ROS levels and reduced apoptosis in cells through regulation of the OSCP gene (e.g., altering expression of the OSCP gene). In further embodiments, the present invention functions by altering the molecular motions of the ATPase motor.
To determine if Bz-423 indeed binds to the OSCP and the affinity of the interaction, human OSCP was overexpressed in E. coli. […]

Data set [2] deals with peripheral benzodiazepine receptor (PBR) (Homo sapiens, UniProt P30536). As to the kind of experiment: Binding to the peripheral benzodiazepine receptor.
In data set [3] the test system is Ramos cells. As to the kind of experiment: Antiproliferation, 72 h, media with 10% FBS. In kind it is cell-based, human. Particulars: read-out: ED50 (μM) for antiproliferation. The protocol: (§1) Like most 1,4-benzodiazepines, Bz-423 binds strongly to bovine serum albumin (BSA), which reduces the effective concentration of drug free in solution. For example, in tissue culture media containing 10% (v/v) fetal bovine serum (FBS), ca. 99% of the drug is bound to BSA. Therefore, cell culture cytotoxicity assays are conducted in media with 2% FBS to reduce binding to BSA and increase the free [Bz-423]. Under these conditions, the dose response-curve is quite sharp such that there is a limited concentration range at which Bz-423 is only partly effective. Since some benzodiazepines are known to have anti-proliferative properties, the effect of Bz-423 at concentrations <ED50 were carefully analyzed and observed that in addition to inducing apoptosis, Bz-423 prevented cell growth after 3 d in culture. In these low serum conditions, the cytotoxic and anti-proliferative effects overlapped making it difficult to study each effect independently. […] While higher amounts of drug may also block proliferation, it caused apoptosis well before the effects on proliferation could be observed.
(§2) To confirm the decrease in cell number relative to control cells after 3 d of treatment is due to decreased proliferation and not cell death balanced by proliferation, in addition to cell counting, cell divisions were studied. PKH-67 is a fluorescent probe that binds irreversibly to cell membranes and upon cell division is partitioned equally between the daughter cells, making it possible to quantify cell division by flow cytometry. Ramos cells stained with PKH67 and treated with Bz-423 had fewer cell divisions at sub-cytotoxic concentrations which confirmed that the decrease in cell number was due to anti-proliferative affects and not cell death. To determine if Bz-423 induced anti-proliferation was specific to Ramos cells, cell counting and cell cycle experiments were done in other B cell lines and cell lines derived from solid tumors.

For data set [4], the system named is Ramos clones transfected to overexpress Bcl-2. Nature of the data set: Antiproliferation, 72 h, media with 10% FBS. Particulars: Bcl-2 overexpressing Ramos, read-out: ED50 (μM) for antiproliferation. In kind it is cell-based, human. As to the method: as §1, §2
Data set [5] concerns Ramos clones transfected to overexpress Bcl-xL. Nature of the data set: Antiproliferation, 72 h, media with 10% FBS. In kind it is cell-based, human. Particulars: Bcl-XL overexpressing Ramos, read-out: ED50 (μM) for antiproliferation. The protocol: as §1, §2
Data set [6] concerns the target T2, bovine serum albumin (BSA) (Bos taurus, UniProt P02769).
T2 construct: from tissue; host or cells: fetal bovine serum (10% v/v) in tissue culture media
As to the kind of experiment: Binding to serum albumin in tissue culture media. In kind it is in vitro ADME. Particulars: tissue culture media containing 10% (v/v) FBS. As to the method:
as §1

In data set [7] the test system is sub-mitochondrial particles. Nature of the data set: Redox cycling, NADH and NAD(P)H oxidation assays with sub-mitochondrial particles. In kind it is biochemical. Particulars: SMPs. The protocol:
By contrast, replacing the hydroxyl with chlorine or azide, or methylating the phenol effectively abolishes the cytotoxic activity of Bz-423. […] Such agents accept an electron from MRC enzymes and transfer it back to the chain at point of higher reducing potential. This type of ‘redox cycling’ consumes endogenous reducing equivalents (e.g., glutathione) along with […] nucleotides and results in cell death. To distinguish between these alternatives, it was determined whether Bz-423 redox cycles in the presence of sub-mitochondrial particles using standard NADH and NAD(P)H oxidation assays.

The test system of data set [8] is Ramos cells. Nature of the data set: Cytotoxicity in media containing 10% FBS. In kind it is cell-based, human.
Description: as §1, with “Therefore, cell culture cytotoxicity assays are conducted in media with 2% FBS to reduce binding to BSA and increase the free [Bz-423].” left out

For data set [9], the system named is central benzodiazepine receptor. Nature of the data set: Binding to the central benzodiazepine receptor.

T2 sequence (P02769 25-607): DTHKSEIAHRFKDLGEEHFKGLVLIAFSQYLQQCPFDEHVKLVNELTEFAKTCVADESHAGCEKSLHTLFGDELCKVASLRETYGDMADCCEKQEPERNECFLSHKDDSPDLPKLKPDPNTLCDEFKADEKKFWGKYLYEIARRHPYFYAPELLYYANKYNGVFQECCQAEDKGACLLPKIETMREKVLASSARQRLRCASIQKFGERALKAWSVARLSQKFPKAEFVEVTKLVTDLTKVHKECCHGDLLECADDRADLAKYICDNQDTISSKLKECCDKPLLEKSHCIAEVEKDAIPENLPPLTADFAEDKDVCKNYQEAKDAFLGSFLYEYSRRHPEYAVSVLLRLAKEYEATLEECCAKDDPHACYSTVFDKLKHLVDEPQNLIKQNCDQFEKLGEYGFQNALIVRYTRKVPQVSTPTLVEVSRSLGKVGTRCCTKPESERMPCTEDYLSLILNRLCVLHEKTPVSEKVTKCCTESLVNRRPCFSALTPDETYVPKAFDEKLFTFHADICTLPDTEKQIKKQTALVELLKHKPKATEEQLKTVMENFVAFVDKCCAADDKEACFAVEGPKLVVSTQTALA
T1 sequence (P48047 24-213): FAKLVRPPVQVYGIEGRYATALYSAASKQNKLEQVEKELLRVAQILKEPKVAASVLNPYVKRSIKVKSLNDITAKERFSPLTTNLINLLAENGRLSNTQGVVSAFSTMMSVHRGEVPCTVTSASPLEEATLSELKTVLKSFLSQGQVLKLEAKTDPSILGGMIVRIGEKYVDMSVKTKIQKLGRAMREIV
Chain of peripheral benzodiazepine receptor (PBR) (P30536 whole entry, species assumed): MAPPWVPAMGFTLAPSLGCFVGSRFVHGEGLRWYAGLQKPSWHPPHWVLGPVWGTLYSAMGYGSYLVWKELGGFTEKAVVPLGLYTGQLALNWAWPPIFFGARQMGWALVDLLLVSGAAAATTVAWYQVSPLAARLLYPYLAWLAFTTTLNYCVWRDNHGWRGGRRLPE

Regarding `CN1C(=O)C(Cc2ccc3ccccc3c2)N=C(c2ccc(O)cc2)c2cc(Cl)ccc21` (stereo not shown) [Bz-423], the Kd in data set [1] is 0.2 ± 0.04 µM; in data set [2], ~1 µM. The results for the EC50 in data set [3], in [4] and in data set [5] were 10.7 µM, 11.9 µM and 13.7 µM, respectively. For the same compound, the “Drug bound to BSA” value in data set [6] is given as “ca. 99%”. In data set [7], the “Redox cycling (substrate oxidation)” value is “does not lead to substrate oxidation”. Also, the Cytotoxicity result in [8] (10–15 μM) is “minimal cytotoxicity”; in [8] (>20 μM), “only apoptosis was observed”. Also, the “Binding to the central benzodiazepine receptor” value in data set [9] was “prevents binding”.
